Laboratory results as given in the kinase profiling compilation of Christmann-Franck et al. (2016).
Where “and” joins values, the source holds several entries; their conditions need not be identical. Equal entries are not always repeated. Each block holds one compound with its values, some of them ahead of it.

Legend:
Assay in all cases: Caliper, Mobility shift assay off-chip
Conditions in all cases: compound 1.0 µM
[1] = target: AKT1 (human) (UniProt P31749)
[2] = target: ALK (human) (UniProt Q9UM73)
[3] = target: BRSK2 (human) (UniProt Q8IWQ3)
[4] = target: BTK (human) (UniProt Q06187)
[5] = target: CDK2 CCNA2 (human) (UniProt P24941+P20248)
Chain of CDK2 CCNA2 (human) (P20248 whole entry, looked up, other chains not shown): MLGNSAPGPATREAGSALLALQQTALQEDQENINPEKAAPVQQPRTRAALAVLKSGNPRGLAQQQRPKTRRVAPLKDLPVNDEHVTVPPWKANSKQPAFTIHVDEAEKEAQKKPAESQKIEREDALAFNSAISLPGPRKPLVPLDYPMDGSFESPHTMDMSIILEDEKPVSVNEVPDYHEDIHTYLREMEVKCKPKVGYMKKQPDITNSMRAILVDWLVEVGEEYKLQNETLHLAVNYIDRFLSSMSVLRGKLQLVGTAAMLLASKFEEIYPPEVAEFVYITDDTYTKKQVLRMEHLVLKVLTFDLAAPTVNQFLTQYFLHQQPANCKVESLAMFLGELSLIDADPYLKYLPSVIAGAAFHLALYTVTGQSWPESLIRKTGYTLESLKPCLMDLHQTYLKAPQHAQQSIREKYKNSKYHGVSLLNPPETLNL

[6] = target: CHEK1 (human) (UniProt O14757)
[7] = target: CSK (human) (UniProt P41240)
[8] = target: EGFR (human) (UniProt P00533)
[9] = target: EPHA2 (human) (UniProt P29317)
[10] = target: EPHA4 (human) (UniProt P54764)
[11] = target: FGFR1 (human) (UniProt P11362)
[12] = target: FGFR3 (human) (UniProt P22607)
[13] = target: FLT3 (human) (UniProt P36888)
[14] = target: IGF1R (human) (UniProt P08069)
[15] = target: IKBKB (human) (UniProt O14920)
Chain of IKBKB (human) (O14920 whole entry, looked up): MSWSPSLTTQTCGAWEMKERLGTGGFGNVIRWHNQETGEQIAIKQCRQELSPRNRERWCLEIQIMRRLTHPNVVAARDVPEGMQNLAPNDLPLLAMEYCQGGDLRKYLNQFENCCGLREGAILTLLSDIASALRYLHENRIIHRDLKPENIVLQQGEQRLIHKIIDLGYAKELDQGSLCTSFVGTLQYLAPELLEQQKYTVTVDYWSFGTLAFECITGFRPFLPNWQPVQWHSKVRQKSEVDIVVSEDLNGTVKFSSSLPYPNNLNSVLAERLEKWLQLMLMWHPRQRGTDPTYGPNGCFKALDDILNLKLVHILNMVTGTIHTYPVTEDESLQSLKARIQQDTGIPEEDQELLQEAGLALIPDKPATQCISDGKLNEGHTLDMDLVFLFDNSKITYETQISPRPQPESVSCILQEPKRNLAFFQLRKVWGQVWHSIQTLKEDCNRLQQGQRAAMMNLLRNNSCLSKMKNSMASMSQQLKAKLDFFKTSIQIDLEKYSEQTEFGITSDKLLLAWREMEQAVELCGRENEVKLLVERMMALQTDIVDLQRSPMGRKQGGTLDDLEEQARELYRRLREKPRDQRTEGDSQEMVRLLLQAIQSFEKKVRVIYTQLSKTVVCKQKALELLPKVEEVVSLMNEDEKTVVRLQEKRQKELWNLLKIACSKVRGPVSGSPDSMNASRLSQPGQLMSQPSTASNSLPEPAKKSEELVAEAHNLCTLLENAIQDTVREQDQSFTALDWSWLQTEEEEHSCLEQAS

[16] = target: KDR (human) (UniProt P35968)
[17] = target: KIT (human) (UniProt P10721)
[18] = target: MAP3K7 (human) (UniProt O43318)
[19] = target: MAPK11 (human) (UniProt Q15759)
[20] = target: MAPK12 (human) (UniProt P53778)
[21] = target: MAPK13 (human) (UniProt O15264)
Chain of MAPK13 (human) (O15264 whole entry, looked up): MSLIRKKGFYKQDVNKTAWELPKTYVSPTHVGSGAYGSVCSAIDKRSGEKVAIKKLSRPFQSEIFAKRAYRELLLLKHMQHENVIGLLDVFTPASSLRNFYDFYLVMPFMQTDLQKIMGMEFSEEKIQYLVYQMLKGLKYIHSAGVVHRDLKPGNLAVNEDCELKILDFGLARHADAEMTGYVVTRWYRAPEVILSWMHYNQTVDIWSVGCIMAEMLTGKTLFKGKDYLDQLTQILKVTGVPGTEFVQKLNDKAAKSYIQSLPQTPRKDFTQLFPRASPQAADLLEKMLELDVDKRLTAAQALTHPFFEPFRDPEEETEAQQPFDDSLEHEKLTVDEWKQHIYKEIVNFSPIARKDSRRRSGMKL

[22] = target: MAPK8 (human) (UniProt P45983)
[23] = target: MAPKAPK2 (human) (UniProt P49137)
[24] = target: MAPKAPK5 (human) (UniProt Q8IW41)
[25] = target: NEK2 (human) (UniProt P51955)
[26] = target: NEK6 (human) (UniProt Q9HC98)
[27] = target: PAK4 (human) (UniProt O96013)
Chain of PAK4 (human) (O96013 whole entry, looked up): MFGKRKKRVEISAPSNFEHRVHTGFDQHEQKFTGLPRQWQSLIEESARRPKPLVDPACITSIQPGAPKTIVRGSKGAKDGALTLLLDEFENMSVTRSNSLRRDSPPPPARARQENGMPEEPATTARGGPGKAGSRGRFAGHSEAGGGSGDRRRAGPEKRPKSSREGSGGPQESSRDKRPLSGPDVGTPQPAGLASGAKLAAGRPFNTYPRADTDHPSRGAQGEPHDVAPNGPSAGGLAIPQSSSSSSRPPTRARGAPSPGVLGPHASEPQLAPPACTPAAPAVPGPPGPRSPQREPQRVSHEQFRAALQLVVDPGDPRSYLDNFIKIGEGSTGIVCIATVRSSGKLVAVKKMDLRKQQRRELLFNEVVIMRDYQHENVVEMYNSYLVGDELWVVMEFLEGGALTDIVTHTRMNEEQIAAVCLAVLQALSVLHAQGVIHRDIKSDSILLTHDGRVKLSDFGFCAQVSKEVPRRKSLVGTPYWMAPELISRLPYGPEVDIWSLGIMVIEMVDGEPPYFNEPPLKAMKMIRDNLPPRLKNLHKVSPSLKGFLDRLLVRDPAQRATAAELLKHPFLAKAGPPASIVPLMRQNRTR

[28] = target: PIM1 (human) (UniProt P11309)
[29] = target: PIM2 (human) (UniProt Q9P1W9)
[30] = target: PLK3 (human) (UniProt Q9H4B4)
[31] = target: PRKCA (human) (UniProt P17252)
[32] = target: PRKCG (human) (UniProt P05129)
[33] = target: PRKCI (human) (UniProt P41743)
Chain of PRKCI (human) (P41743 whole entry, looked up): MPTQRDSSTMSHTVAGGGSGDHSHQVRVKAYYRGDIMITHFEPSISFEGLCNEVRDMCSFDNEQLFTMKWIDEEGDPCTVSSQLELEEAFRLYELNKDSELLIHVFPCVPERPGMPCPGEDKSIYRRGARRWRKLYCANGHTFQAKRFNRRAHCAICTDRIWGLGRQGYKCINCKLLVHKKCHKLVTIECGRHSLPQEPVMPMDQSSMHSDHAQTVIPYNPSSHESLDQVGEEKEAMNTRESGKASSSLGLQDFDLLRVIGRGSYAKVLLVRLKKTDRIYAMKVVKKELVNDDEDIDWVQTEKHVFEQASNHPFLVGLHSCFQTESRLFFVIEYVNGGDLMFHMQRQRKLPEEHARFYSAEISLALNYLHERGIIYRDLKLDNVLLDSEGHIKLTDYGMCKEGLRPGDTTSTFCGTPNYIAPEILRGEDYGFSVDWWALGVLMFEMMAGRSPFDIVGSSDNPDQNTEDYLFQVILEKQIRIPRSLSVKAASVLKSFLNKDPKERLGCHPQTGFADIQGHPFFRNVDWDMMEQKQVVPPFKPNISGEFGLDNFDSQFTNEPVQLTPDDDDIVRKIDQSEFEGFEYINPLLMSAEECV

[34] = target: RAF1 (human) (UniProt P04049)
[35] = target: ROCK1 (human) (UniProt Q13464)
[36] = target: RPS6KA1 KD1 KD2 (human) (UniProt Q15418)
[37] = target: RPS6KA5 KD1 KD2 (human) (UniProt O75582)
Chain of RPS6KA5 KD1 KD2 (human) (O75582 whole entry, looked up): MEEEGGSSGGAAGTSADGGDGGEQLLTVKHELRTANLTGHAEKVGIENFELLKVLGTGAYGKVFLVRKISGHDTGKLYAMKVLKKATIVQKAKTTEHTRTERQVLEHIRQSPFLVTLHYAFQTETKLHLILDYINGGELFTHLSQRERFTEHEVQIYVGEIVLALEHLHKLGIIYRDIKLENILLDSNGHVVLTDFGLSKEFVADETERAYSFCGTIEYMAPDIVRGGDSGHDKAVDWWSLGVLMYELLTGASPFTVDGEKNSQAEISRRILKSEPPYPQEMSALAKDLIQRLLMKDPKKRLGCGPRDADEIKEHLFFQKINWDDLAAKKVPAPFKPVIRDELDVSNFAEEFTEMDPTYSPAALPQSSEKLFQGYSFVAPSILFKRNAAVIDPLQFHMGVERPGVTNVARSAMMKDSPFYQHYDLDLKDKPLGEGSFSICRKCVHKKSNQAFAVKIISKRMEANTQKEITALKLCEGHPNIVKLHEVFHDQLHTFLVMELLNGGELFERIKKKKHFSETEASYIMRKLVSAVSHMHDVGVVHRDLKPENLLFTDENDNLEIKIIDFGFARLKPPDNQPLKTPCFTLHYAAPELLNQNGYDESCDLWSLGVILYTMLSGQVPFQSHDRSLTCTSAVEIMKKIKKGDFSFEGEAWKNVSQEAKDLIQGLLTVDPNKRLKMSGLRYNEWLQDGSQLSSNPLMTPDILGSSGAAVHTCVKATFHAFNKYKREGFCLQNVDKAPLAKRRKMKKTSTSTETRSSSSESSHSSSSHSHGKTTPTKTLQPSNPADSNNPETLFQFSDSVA

[38] = target: RPS6KB1 (human) (UniProt P23443)
[39] = target: SRC (human) (UniProt P12931)
Chain of SRC (human) (P12931 whole entry, looked up): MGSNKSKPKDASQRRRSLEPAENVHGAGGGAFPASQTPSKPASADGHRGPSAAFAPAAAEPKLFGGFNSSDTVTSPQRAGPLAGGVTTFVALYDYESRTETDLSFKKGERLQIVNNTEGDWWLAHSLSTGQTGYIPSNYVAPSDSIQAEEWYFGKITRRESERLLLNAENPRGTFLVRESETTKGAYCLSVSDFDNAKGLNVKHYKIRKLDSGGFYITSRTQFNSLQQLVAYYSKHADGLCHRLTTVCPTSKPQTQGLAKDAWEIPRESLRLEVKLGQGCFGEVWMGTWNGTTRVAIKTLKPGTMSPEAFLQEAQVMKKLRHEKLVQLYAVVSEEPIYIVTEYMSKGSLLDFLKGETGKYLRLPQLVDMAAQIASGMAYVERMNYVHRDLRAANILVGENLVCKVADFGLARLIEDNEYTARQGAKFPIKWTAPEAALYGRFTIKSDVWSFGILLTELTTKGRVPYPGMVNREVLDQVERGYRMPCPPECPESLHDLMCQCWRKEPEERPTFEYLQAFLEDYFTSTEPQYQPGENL

[40] = target: TEK (human) (UniProt Q02763)
[41] = target: ZAP70 (human) (UniProt P43403)

residual activity [1]: 98% | residual activity [2]: 77% | residual activity [3]: 15% | residual activity [4]: 79% | residual activity [5]: 104% | residual activity [6]: 46% | residual activity [7]: 75% | residual activity [8]: 116% | residual activity [9]: 131% | residual activity [10]: 103% | residual activity [11]: 29% | residual activity [12]: 60% | residual activity [13]: 43% | residual activity [14]: 85% | residual activity [15]: 92% | residual activity [16]: 42% | residual activity [17]: 109% | residual activity [18]: 90% | residual activity [19]: 110% | residual activity [20]: 106% | residual activity [21]: 108% | residual activity [22]: 87% | residual activity [23]: 115% | residual activity [24]: 75% | residual activity [25]: 116% | residual activity [26]: 110% | residual activity [27]: 95% | residual activity [28]: 107% | residual activity [29]: 99% | residual activity [30]: 85% | residual activity [31]: 108% | residual activity [32]: 95% | residual activity [33]: 98% | residual activity [34]: 107% | residual activity [35]: 102% | residual activity [36]: 20% | residual activity [37]: 83% | residual activity [38]: 45% | residual activity [39]: 83% and 87% | residual activity [40]: 109% | residual activity [41]: 104%
SMILES: C[C@@H](Nc1nc2c(C#CC3CC3)c[nH]c(=O)c2c2cc(-c3cn[nH]c3)ccc12)C(C)(C)C

residual activity [1]: 102% | residual activity [2]: 116% | residual activity [3]: 18% | residual activity [4]: 95% | residual activity [5]: 104% | residual activity [6]: 5% | residual activity [7]: 110% | residual activity [8]: 110% | residual activity [9]: 107% | residual activity [10]: 104% | residual activity [11]: 43% | residual activity [12]: 102% | residual activity [13]: 25% | residual activity [14]: 145% | residual activity [15]: 104% | residual activity [16]: 95% | residual activity [17]: 112% | residual activity [18]: 56% | residual activity [19]: 99% | residual activity [20]: 107% | residual activity [21]: 97% | residual activity [22]: 106% | residual activity [23]: 88% | residual activity [24]: 80% | residual activity [25]: 118% | residual activity [26]: 101% | residual activity [27]: 69% | residual activity [28]: 97% | residual activity [29]: 92% | residual activity [30]: 95% | residual activity [31]: 107% | residual activity [32]: 75% | residual activity [33]: 114% | residual activity [34]: 106% | residual activity [35]: 66% | residual activity [36]: 2% | residual activity [37]: 68% | residual activity [38]: 76% | residual activity [39]: 104% | residual activity [40]: 106% | residual activity [41]: 114%
SMILES: Cc1n[nH]c2c1c(=O)n(CCCN)c1ccc(Cl)cc21
